# Measurements taken from US20160183537A1 (priority 2014, published 2016).
# What was measured:
# Format in all cases: in vivo
# [1] = test system: Bean Rust (Uromyces appendiculatus); experiment: Greenhouse control of bean rust, second experiment; settings: common bean, 10 days after infection (200 k conidia/ml), RTI472 and SERENADE OPTIMUM 1×10^8 cfu/ml, Tebuconazole 50 g a.i./ha, Chlorothalonil 500 g a.i./ha, non-treated 23% disease
# [2] = test system: Pepper Botrytis Blight (Botrytis cinerea); experiment: Greenhouse control of Pepper Botrytis Blight; settings: 7 days after infection (1M conidia/ml), RTI472 and SERENADE OPTIMUM 1×10^8 cfu/ml, Tebuconazole 50 g a.i./ha, Chlorothalonil 500 g a.i./ha, non-treated 6% disease
# [3] = test system: Soybean Powdery Mildew (Microsphaera diffusa); experiment: Greenhouse control of soybean powdery mildew; settings: 9 days after placing between infected flats, 1×10^8 cfu/ml, Tebuconazole (HORIZON) 50 g a.i./ha, non-treated 70% disease
# [4] = test system: Pepper Botrytis Blight (Botrytis cinerea); experiment: Greenhouse dose response for control of Pepper Botrytis Blight; settings: 3 days after infection (1M conidia/ml), 50 g a.i./ha
# [5] = test system: Pepper Botrytis Blight (Botrytis cinerea); experiment: Greenhouse control of Pepper Botrytis Blight at varying pathogen inoculation rates; settings: 4 days after infection, biologicals 1 × 10^8, Tebuconazole 50 g a.i./ha, non-treated 65% disease
Compound,Percent Disease Control [1] [a Percent],Percent Disease Control [2] [a Percent],Percent Disease Control [3] [a Percent],Percent Disease Control [4] [a Percent],Percent Disease Control ([5]; inoculum 1M conidia/ml) [a Percent],Percent Disease Control ([5]; inoculum 2M conidia/ml) [a Percent]
N#Cc1c(Cl)c(Cl)c(Cl)c(C#N)c1Cl [Chlorothalonil],100,99,,,,
CC(C)(C)C(O)(CCc1ccc(Cl)cc1)Cn1cncn1 (centres unmarked) [Tebuconazole],100,99,100,100,100,94
